US20240148671A1, “METHODS FOR IMPROVING POULTRY HEALTH” (CORNELL UNIVERSITY, priority 2021, published 2024)
“Also recorded” adds a separate entry of the source. Like-named read-outs stand apart in the source and are kept apart here. Marks after values point to notes of the source that are not given here.

What was measured:
[1] = Glycogen in pectoral muscle; format: in vivo, Gallus gallus; conditions: intra-amniotic 1 mL/egg on day 17, at hatch, mean ± SEM, n=8
Protocol: (§1) The pure resveratrol and pterostilbene were individually diluted in 18 MΩ H2O. The intra-amniotic administration followed the methodology previously described. On the 17th day of embryonic development, the eggs with viable embryos (n=60) were randomly allocated into 6 groups (n=10) with a similar weight frequency distribution. For the intra-amniotic treatment, 1 mL of solution per egg was injected into the amniotic fluid (via candling) with the aid of a 21-gauge needle. After the procedure, the injection sites were sealed with cellophane tape, and the eggs were distributed into six groups: (1) no injection; (2) 18 MΩ H2O; (3) 5% inulin; (4) 5% resveratrol; (5) 5% pterostilbene; and (6) synergistic: 4.75% resveratrol and 0.25% pterostilbene. […] The eggs were equally distributed in each incubator location to reduce possible allocation bias. Upon hatching (21 days), the hatchlings were euthanized by CO2 exposure, and the blood, liver, heart, pectoral muscle, small intestine and cecum were obtained.

hemoglobin (Hb) = assay: Blood hemoglobin (Hb) after intra-amniotic administration; format: in vivo, Gallus gallus; conditions: intra-amniotic 1 mL/egg on day 17; blood at hatch (day 21); mean ± SEM
Protocol: as §1
Blood was collected using micro-hematocrit heparin-coated capillary tubes (Fisher Scientific, Waltham, MA, USA). The hemoglobin (Hb) concentration was assessed spectrophotometrically using the QuantiChrom™ Hb Assay (DIHB-250, BioAssay Systems, Hayward, CA, USA) and according to specific instructions.

[2] = test system: duodenal tissue (villi, crypts, goblet cells); assay: Morphometric examination of duodenal tissue; format: in vivo, Gallus gallus; conditions: intra-amniotic 1 mL/egg on day 17, at hatch, mean ± SEM, n=5; for Depth of Crypts (μm) / Mucus Layer Width (μm) / Villus Diameter (μm) / Villus Length (μm): duodenum; for Crypt Goblet Cell Number / Goblet Cell Diameter (μM) / Villus Goblet Cell Type Number, Acidic / Villus Goblet Cell Type Number, Mixed / Villus Goblet Cell Type Number, Neutral: small intestine
Protocol: as §1
Villus epithelium analysis was conducted as previously published. The duodenal samples were soaked in buffered formaldehyde (4% (v/v)), dehydrated, cleared and embedded in paraffin. Numerous sections were cut with a thickness of 5 μm and put on slides. The sections were deparaffinized in xylene, after which they were rehydrated in a series of graded alcohol. Finally, the slides were stained with Alcian Blue-periodic acid-Schiff and investigated under a light microscopy. The variables were assessed (light microscope, EPIX XCAP software, standard version, Olympus, Waltham, MA, USA) for the following: villus length, villus diameter, depth of crypts, goblet cell diameter, crypt goblet cell number and villus goblet cells type number (acidic, neutral or mixed). Four segments for each biological sample and five biological samples per treatment group were examined. The goblet cells were enumerated at 10 villi/sample, and the means were calculated for statistical analysis.

Liver Ferritin = assay: Liver ferritin; format: in vivo, Gallus gallus; conditions: intra-amniotic 1 mL/egg on day 17, at hatch, mean ± SEM, n=5
Protocol: as §1

[3] = Fe and Zn content in the serum and liver samples; format: in vivo, Gallus gallus; conditions: intra-amniotic 1 mL/egg on day 17, at hatch, mean ± SEM, n=8
Protocol: as §1
The serum (50 μL) and liver (0.5 g) samples were mixed with 3.0 mL of a 60:40 (v/v) solution of nitric acid (HNO3) and perchloric acid (HClO4) and incubated overnight. After this, the samples were heated for 2 hours at 120° C. and added to 0.25 mL of 40 μg/g yttrium (internal standard), and the block temperature was increased to 145° C. for 2 h and then 190° C. for 10 min. At the end of these procedures, the samples were cooled, diluted to a total volume of 20 mL, mixed and transferred into autosampler tubes for analysis (inductively coupled plasma atomic emission spectrometer) (Thermo, Franklin, MA, USA).

[4] = Body weight, cecum weight and cecum:body weight ratio; format: in vivo, Gallus gallus; conditions: intra-amniotic 1 mL/egg on day 17; at hatch (day 21); mean ± SEM, n=8
Protocol: as §1

[5] = absorption in the gut lumen, literature refs 11, 12 (Kapetanovic et al.; Walle), cited from earlier work
cecal microbiome = assay: 16S rRNA gene sequencing of the cecal microbiota; format: in vivo, Gallus gallus; conditions: cecal content at hatch, n=5; 5% inulin vs all other experimental groups (p<0.01); 5% pterostilbene vs 18 MΩ H2O control (p<0.05); stilbene groups among each other
Protocol: as §1
As was formerly described, cecal samples were used to extract microbial genomic DNA (PowerSoil DNA isolation kit, MoBio Laboratories Ltd., Carlsbad, CA, USA). […] The PCR products were purified (Beckman Coulter, Atlanta, GA, USA) and quantified (Quant-iT PicoGreen dsDNA quantitation kit, Invitrogen, Carlsbad, CA, USA). […]
The 16S rRNA gene sequence analysis was performed using QIIME2 as previously described. The sequence reads were demultiplexed by per-sample barcodes, and the Divisive Amplicon Denoising Algorithm (DADA2) was used to correct the Illumina-sequenced amplicon read errors. […] The alpha and β diversity were calculated from samples containing at least 9.800 sequences. The alpha diversity parameter, a measure of the richness of the bacterial community, was calculated using the Shannon Index, and the beta diversity was assessed by a Jaccard similarity distance matrix. […]
The values in this paper were expressed as means and standard errors of the means (SEM). […] The results were analyzed by Analysis of Variance (ANOVA). […]

Molecule	Glycogen (mg/g) [1]	Hb (g/dL) (hemoglobin (Hb))	Depth of Crypts (μm) [2]	Mucus Layer Width (μm) [2]	Villus Diameter (μm) [2]	Villus Length (μm) [2]	Crypt Goblet Cell Number [2]	Goblet Cell Diameter (μM) [2]	Villus Goblet Cell Type Number, Acidic [2]	Villus Goblet Cell Type Number, Mixed [2]	Villus Goblet Cell Type Number, Neutral [2]	Liver Ferritin (A.U.) (Liver Ferritin)	Liver Iron (μg/g) [3]	Liver Zinc (μg/g) [3]	Serum Iron (μg/g) [3]	Serum Zinc (μg/g) [3]	Body Weight Average (g) [4]	Cecum Weight Average (g) [4]	Cecum:Body Weight Ratio [4]	other results
COc1cc(/C=C/c2ccc(O)cc2)cc(OC)c1 [5% Pterostilbene, Pterostilbene]	0.033 ± 0.010^a mg/g	8.95 ± 0.77^a g/dL	66.41 ± 1.19^a μm	3.76 ± 0.10^e μm	81.33 ± 4.95^a μm	451.58 ± 11.21^b μm	10.04 ± 0.18 ^c	7.81 ± 0.07 ^b μM	10.78 ± 0.22 ^ab	0.28 ± 0.05 ^b	0.00 ± 0.00 ^b	1.011 ± 0.351^bc A.U.	37.43 ± 1.52 ^ab μg/g	14.43 ± 0.49 ^b μg/g	2.94 ± 0.44 ^b μg/g	1.33 ± 0.20 ^a μg/g	46.7 ± 0.7^a g	0.6 ± 0.1^a g	0.013 ± 0.001^a	bioavailability [5]: 80%; bioavailability ([5]; listed as pterostilbenes): about 80%
inulin [5% Inulin, reference compound]	0.029 ± 0.005^a mg/g	8.86 ± 0.69^a g/dL	51.30 ± 1.07^b μm	5.27 ± 0.13^c μm	44.57 ± 0.79^d μm	262.54 ± 3.76^d μm	12.27 ± 0.33 ^a	7.12 ± 0.06 ^d μM	10.65 ± 0.25 ^ab	0.02 ± 0.01 ^e	0.00 ± 0.00 ^b	0.148 ± 0.005^c A.U.	48.96 ± 4.39 ^a μg/g	18.23 ± 0.88 ^ab μg/g	2.76 ± 0.33 ^b μg/g	0.97 ± 0.08 ^bc μg/g	49.7 ± 0.9^a g	0.6 ± 0.1^a g	0.012 ± 0.001^a	β diversity of the cecal microbiome (Jaccard distances), comparison between groups (cecal microbiome): statistical differences; also recorded: differed
